The EC50 is the concentration giving half of the maximal effect.

The structures appear in SMILES notation.

The test system of one assay is HBV (hepatitis B virus) in HepG2.2.15 cells. Nature of the assay: Cell-based anti-viral activity assay (HBV DNA in supernatant by quantitative PCR). The settings on record: 120 h, anti-HBV activity, HepG2.2.15 cells, 5 days, read-out: EC50 (HepG2.2.15). The method, then:
Cell-Based Anti-Viral Activity Assay
The Invention determined the anti-HBV (hepatitis B virus) activity of compounds in HepG2.2.15 cells (Table 1).
HepG2.2.15 is a cell line stably transfected with the HBV genome. HepG2.2.15 cells were cultured in DMEM (1X) with 10% fetal bovine serum (Corning), 100 U penicillin (Gibico), 100 μg/mL streptomycin (Gibico), 250 μg/mL geneticin (Gibco) and GlutaMAXTM-I medium (Invitrogen).
HepG2.2.15 cells were seeded into 96-well plates (4×10^4 cells in 100 μL of medium per well) and incubated overnight at 37° C. The test compounds were weighed and prepared as 10 mM stock solution with DMSO. The stock solutions of the compounds were diluted by a gradient of 3.16 times with DMSO, and then diluted by a gradient of 3.16 times with medium for 50 times. Finally, the diluted compound solutions were added to the cell plate with a total volume of 200 μL and the final DMSO concentration was 1%. The 96-well culture plates loaded with drugs were transferred to an incubator at 37° C. for 5 days. […] nucleic acid releasing agent was added to 96-well PCR reaction plate, and 2 μL of cell supernatant or HBV quantitative standards were added to the corresponding Wells. Centrifuged the plates to fully mix, and incubated at room temperature for 10 min to fully release nucleic acid. Quantified HBV DNA content by fluorescent quantitative PCR (CFX Connect Real-Time System) using Sanxiang Bio hepatitis B virus fluorescent quantitative diagnostic kit.
The standard curve was established by taking the logarithm of the copy number (IU/ml) of the HBV standard sample (log 10) as the abscordinate and the corresponding CT value as the ordinate. The copy number of the sample was calculated according to the corresponding CT of the positive sample and the standard curve, and the percentage of inhibition rate was calculated as follows: • % Inhibition=100-100*(sample HBV copy number−high concentration reference compound column HBV copy number)/DMSO column HBV copy number−high concentration reference compound column HBV copy number).
On to `CCOC(=O)C1=C(CN2CCN3C(=O)N(C45CC(C(C)C(=O)O)(C4)C5)C[C@@H]3C2)NC(c2nccs2)=N[C@H]1c1cccc(F)c1C` (stereo partly drawn) [Compound 30, 2-(3-((S)-7-(((S)-5-(Ethoxycarbonyl)-6-(3-Fluoro-2-Methylphenyl)-2-(Thiazol-2-Yl)-3,6-Dihydropyrimidin-4-Yl)Methyl)-3-Oxohexahydroimidazo[1,5-a]Pyrazin-2(3H)-Yl)Bicyclo[1.1.1]Pentan-1-Yl)Propanoic Acid], for which the EC50 was 11 nM.

In the case of `CCOC(=O)C1=C(CN2CCN3C(=O)N(C45CC(CNS(C)(=O)=O)(C4)C5)C[C@@H]3C2)NC(c2nccs2)=N[C@H]1c1cccc(F)c1C` [Compound 14, Ethyl (S)-4-(3-Fluoro-2-Methylphenyl)-6-(((S)-2-(3-(Methylsulfonamidomethyl)Bicyclo[1.1.1]Pentan-1-Yl)-3-Oxohexahydroimidazo[1,5-a]Pyrazin-7(1H)-Yl)Methyl)-2-(Thiazol-2-Yl)-1,4-Dihydropyrimidine-5-Carboxylate], the half-maximal effective concentration (EC50) turned out to be 4 nM. In the case of `CCOC(=O)C1=C(CN2CCN3C(=O)N(C45CC(NS(N)(=O)=O)(C4)C5)C[C@@H]3C2)NC(c2nccs2)=N[C@H]1c1cccc(F)c1C` [Compound 21, Ethyl (S)-4-(3-Fluoro-2-Methylphenyl)-6-(((S)-3-Oxo-2-(3-(Sulfamoylamino)Bicyclo[1.1.1]Pentan-1-Yl)Hexahydroimidazo[1,5-a]Pyrazin-7(1H)-Yl)Methyl)-2-(Thiazol-2-Yl)-1,4-Dihydropyrimidine-5-Carboxylate], the EC50 is 15 nM. For the compound `CCOC(=O)C1=C(CN2CCN3C(=O)N(C45CC(CN6CCCC6=O)(C4)C5)C[C@@H]3C2)NC(c2nccs2)=N[C@H]1c1cccc(F)c1C` [Compound 25, Ethyl (S)-4-(3-Fluoro-2-Methylphenyl)-6-(((S)-3-Oxo-2-(3-((2-Oxopyrrolidin-1-Yl)Methyl)Bicyclo[1.1.1]Pentan-1-Yl)Hexahydroimidazo[1,5-a]Pyrazin-7(1H)-Yl)Methyl)-2-(Thiazol-2-Yl)-1,4-Dihydropyrimidine-5-Carboxylate], the EC50 stood at 2 nM. Consider `COC(=O)C1=C(CN2CCN3C(=O)N(C45CC(CC(=O)O)(C4)C5)C[C@@H]3C2)NC(c2nccs2)=N[C@H]1c1ccc(F)c(F)c1C` [Compound 41, 2-(3-((S)-7-(((S)-6-(3,4-Difluoro-2-Methylphenyl)-5-(Methoxycarbonyl)-2-(Thiazol-2-Yl)-3,6-Dihydropyrimidin-4-Yl)Methyl)-3-Oxohexahydroimidazo[1,5-a]Pyrazin-2(3H)-Yl)Bicyclo[1.1.1]Pentan-1-Yl)Acetic Acid], for which the EC50 is 8 nM. Take `CCOC(=O)C1=C(CN2CCN3C(=O)N(C45CC(CS(C)(=O)=O)(C4)C5)C[C@@H]3C2)NC(c2nccs2)=N[C@H]1c1cccc(F)c1C` [Compound 8, Ethyl (S)-4-(3-Fluoro-2-Methylphenyl)-6-(((S)-2-(3-((Methylsulfonyl)Methyl)Bicyclo[1.1.1]Pentan-1-Yl)-3-Oxohexahydroimidazo[1,5-a]Pyrazin-7(1H)-Yl)Methyl)-2-(Thiazol-2-Yl)-1,4-Dihydropyrimidine-5-Carboxylate]: the concentration for a half-maximal effect (EC50) is 4 nM. With `CCOC(=O)C1=C(CN2CCN3C(=O)N(C45CC(NS(C)(=O)=O)(C4)C5)C[C@@H]3C2)NC(c2nccs2)=N[C@H]1c1cccc(F)c1C` [Compound 9, Ethyl (S)-4-(3-Fluoro-2-Methylphenyl)-6-(((S)-2-(3-(Methylsulfonamido)Bicyclo[1.1.1]Pentan-1-Yl)-3-Oxohexahydroimidazo[1,5-a]Pyrazin-7(1H)-Yl)Methyl)-2-(Thiazol-2-Yl)-1,4-Dihydropyrimidine-5-Carboxylate], the EC50 came out at 4 nM. Still for that read-out and setting: the result for `CCOC(=O)C1=C(CN2CCN3C(=O)N(C45CC(CNS(=O)(=O)C6CC6)(C4)C5)C[C@@H]3C2)NC(c2nccs2)=N[C@H]1c1cccc(F)c1C` [Compound 23] reads 4 nM.

As to `CCOC(=O)C1=C(CN2CCN3C(=O)N(C45CC(CC(=O)O)(C4)C5)C[C@@H]3C2)NC(c2nccs2)=N[C@H]1c1ccc(F)c(F)c1` [Compound 36], the EC50 turned out to be 48 nM.

On to `CCOC(=O)C1=C(CN2CCN3C(=O)N(C45CC(C(C)(C)C(=O)O)(C4)C5)C[C@@H]3C2)NC(c2nccs2)=N[C@H]1c1cccc(F)c1C` [Compound 42], for which the EC50 is 11 nM. Still for that read-out and setting: the result for `CCOC(=O)C1=C(CN2CCN3C(=O)N(C45CC(N6CCCC6=O)(C4)C5)C[C@@H]3C2)NC(c2nccs2)=N[C@H]1c1cccc(F)c1C` [Compound 13, Ethyl (S)-4-(3-Fluoro-2-Methylphenyl)-6-(((S)-3-Oxo-2-(3-(2-Oxopyrrolidin-1-Yl)Bicyclo[1.1.1]Pentan-1-Yl) Hexahydroimidazo[1,5-a]Pyrazin-7(1H)-Yl)Methyl)-2-(Thiazol-2-Yl)-1,4-Dihydropyrimidine-5-Carboxylate] reads 8 nM; that for `COC(=O)C1=C(CN2CCN3C(=O)N(C45CC(CC(=O)O)(C4)C5)C[C@@H]3C2)NC(c2nccs2)=N[C@H]1c1ccc(F)cc1Br` [Compound 39, 2-(3-((S)-7-(((R)-6-(2-Bromo-4-Fluorophenyl)-5-(Methoxycarbonyl)-2-(Thiazol-2-Yl)-3,6-Dihydropyrimidin-4-Yl)Methyl)-3-Oxohexahydroimidazo[1,5-a]Pyrazin-2 (3H)-Yl)Bicyclo[1.1.1]Pentane-1-Yl)Acetic Acid], 32 nM; that for `CCOC(=O)C1=C(CN2CCN3C(=O)N(C45CC(CO)(C4)C5)C[C@@H]3C2C(=O)OCC)NC(c2nccs2)=N[C@H]1c1cccc(F)c1C` (stereo partly drawn) [Compound 31, Ethyl (8aR)-7-(((S)-5-(Ethoxycarbonyl)-6-(3-Fluoro-2-Methylphenyl)-2-(Thiazol-2-Yl)-3,6-Dihydropyrimidin-4-Yl)Methyl)-2-(3-(Hydroxymethyl)Bicyclo[1.1.1]Pentan-1-Yl)-3-Oxooctahydroimidazo[1,5-a]Pyrazine-8-Carboxylate], 25 nM.

For the compound `CCOC(=O)C1=C(CN2CCN3C(=O)N(C45CCC(CC(=O)O)(CC4)C5)C[C@@H]3C2)NC(c2nccs2)=N[C@H]1c1cccc(F)c1C` [Compound 63, 2-(4-((S)-7-(((S)-5-(Ethoxycarbonyl)-6-(3-Fluoro-2-Methylphenyl)-2-(Thiazol-2-Yl)-3,6-Dihydropyrimidin-4-Yl)Methyl)-3-Oxohexahydroimidazo[1,5-a]Pyrazin-2(3H)-Yl)Bicyclo[2.2.1]Heptan-1-Yl)Acetic Acid], the EC50 is 26 nM. On to `CCOC(=O)C1=C(CN2CCN3C(=O)N(C45CC(N6CCCS6(=O)=O)(C4)C5)C[C@@H]3C2)NC(c2nccs2)=N[C@H]1c1cccc(F)c1C` [Compound 19, Ethyl (S)-6-(((S)-2-(3-(1,1-Dioxidoisothiazolidin-2-Yl)Bicyclo[1.1.1]Pentan-1-Yl)-3-Oxohexahydroimidazo[1,5-a]Pyrazin-7(1H)-Yl)Methyl)-4-(3-Fluoro-2-Methylphenyl)-2-(Thiazol-2-Yl)-1,4-Dihydropyrimidine-5-Carboxylate], for which the EC50 was 3 nM.

Staying with this assay, now noted: HepG2.2.15, 120 h, read-out: EC50 (HepG2.2.15, nM).
With `CCOC(=O)C1=C(CN2CCN3C(=O)N(C45CC(CP(=O)(OCC)OCC)(C4)C5)C[C@@H]3C2)NC(c2nccs2)=N[C@H]1c1cccc(F)c1C` [Compound 16, Ethyl (S)-6-(((S)-2-(3-((Diethoxyphosphoryl)Methyl)Bicyclo[1.1.1]Pentan-1-Yl)-3-Oxohexahydroimidazo[1,5-a]Pyrazin-7(1H)-Yl)Methyl)-4-(3-Fluoro-2-Methylphenyl)-2-(Thiazol-2-Yl)-1,4-Dihydropyrimidine-5-Carboxylate], the 50% effective concentration (EC50) was 9 nM.

Source of the values: patent US20240166649A1, “DIHYDROPYRIMIDINE COMPOUND, PREPARATION METHOD THEREFOR AND APPLICATION THEREOF” (Shanghai Visonpharma Co., Ltd., priority 2021, published 2024).
